Measurements as given in the supplement of paper PMC10307832.

compound: CN1CCC(CC1)OC2=CC(=C(C=C2)NC3=NC=C4C(=N3)N(C(=O)N4C)C5CCCC5)OC [AZ3146] + CC(C)C[C@H](NC(=O)[C@H](Cc1ccccc1)NC(=O)c1cnccn1)B(O)O [Bortezomib] (partner 0.002 µM); assay: relative viability (nuclei count vs DMSO), 5 days (fraction); higher = more cells survive; conditions: first compound 0.08 µM
How it was run: (§1)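 Lung cancer cell lines, seeded in 1536-well plates, were treated the following day by pin tool with a single drug or with five library-drug doses (not always all listed) in √10 steps on top of a fixed anchor-drug dose. Cells were fixed and nuclei stained in one step after 5 days, and nuclei were counted. Relative viability is the nuclei count for treated wells divided by that for vehicle wells, reported as medians of duplicate plates.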

| Cell Line | relative viability |
| --- | --- |
| NCI-H1975 | 0.36 |
| NCI-H441 | 0.394 |
| NCI-H1650 | 0.204 |
| NCI-H1915 | 0.933 |
| NCI-H2087 | 0.676 |
| HCC-366 | 0.983 |
| RERF-LC-KJ | 1.07 |
| EMC-BAC-2 | 1.03 |
| LCLC-97TM1 | 0.53 |
| NCI-H1651 | 0.827 |
| NCI-H2009 | 0.824 |
| SW 1573 | 0.995 |

same assay, conditions: first compound 0.253 µM

| Cell Line | relative viability |
| --- | --- |
| NCI-H1975 | 0.425 |
| NCI-H441 | 0.743 |
| NCI-H1650 | 0.226 |
| NCI-H1915 | 1.01 |
| NCI-H2087 | 0.908 |
| HCC-366 | 1.05 |
| RERF-LC-KJ | 1.15 |
| EMC-BAC-2 | 1.03 |
| LCLC-97TM1 | 0.792 |
| NCI-H1651 | 1.02 |
| NCI-H2009 | 1.08 |
| SW 1573 | 1.03 |

same assay, conditions: first compound 0.8 µM

| Cell Line | relative viability |
| --- | --- |
| NCI-H1975 | 0.383 |
| NCI-H441 | 0.602 |
| NCI-H1650 | 0.205 |
| NCI-H1915 | 0.502 |
| NCI-H2087 | 0.734 |
| HCC-366 | 1.08 |
| RERF-LC-KJ | 1.24 |
| EMC-BAC-2 | 1.19 |
| LCLC-97TM1 | 0.569 |
| NCI-H1651 | 0.995 |
| NCI-H2009 | 1.05 |
| SW 1573 | 1.09 |

same assay, conditions: first compound 2.53 µM

| Cell Line | relative viability |
| --- | --- |
| NCI-H1975 | 0.384 |
| NCI-H441 | 1.02 |
| NCI-H1650 | 0.168 |
| NCI-H1915 | 0.955 |
| NCI-H2087 | 0.955 |
| HCC-366 | 1.06 |
| RERF-LC-KJ | 1.04 |
| EMC-BAC-2 | 1.12 |
| LCLC-97TM1 | 0.973 |
| NCI-H1651 | 0.921 |
| NCI-H2009 | 1.04 |
| SW 1573 | 0.869 |

same assay, conditions: first compound 8 µM

| Cell Line | relative viability |
| --- | --- |
| NCI-H1975 | 0.256 |
| NCI-H441 | 0.346 |
| NCI-H1650 | 0.2 |
| NCI-H1915 | 0.973 |
| NCI-H2087 | 0.916 |
| HCC-366 | 0.735 |
| RERF-LC-KJ | 0.98 |
| EMC-BAC-2 | 1.15 |
| LCLC-97TM1 | 0.172 |
| NCI-H1651 | 0.969 |
| NCI-H2009 | 0.636 |
| SW 1573 | 0.777 |

compound: CN1CCC(CC1)OC2=CC(=C(C=C2)NC3=NC=C4C(=N3)N(C(=O)N4C)C5CCCC5)OC [AZ3146] + Cc1nc(Nc2ncc(C(=O)Nc3c(C)cccc3Cl)s2)cc(N2CCN(CCO)CC2)n1 [Dasatinib] (partner 0.075 µM); assay: as above; conditions: first compound 0.08 µM
How it was run: as §1

| Cell Line | relative viability |
| --- | --- |
| NCI-H1975 | 0.358 |
| NCI-H441 | 0.636 |
| NCI-H1650 | 0.318 |
| NCI-H1915 | 0.262 |
| NCI-H2087 | 0.802 |
| HCC-366 | 0.483 |
| RERF-LC-KJ | 0.877 |
| EMC-BAC-2 | 0.273 |
| LCLC-97TM1 | 0.669 |
| NCI-H1651 | 0.335 |
| NCI-H2009 | 0.363 |
| SW 1573 | 0.557 |

same assay, conditions: first compound 0.253 µM

| Cell Line | relative viability |
| --- | --- |
| NCI-H1975 | 0.338 |
| NCI-H441 | 0.68 |
| NCI-H1650 | 0.315 |
| NCI-H1915 | 0.344 |
| NCI-H2087 | 1.09 |
| HCC-366 | 0.57 |
| RERF-LC-KJ | 0.874 |
| EMC-BAC-2 | 0.366 |
| LCLC-97TM1 | 0.755 |
| NCI-H1651 | 0.387 |
| NCI-H2009 | 0.315 |
| SW 1573 | 0.637 |

same assay, conditions: first compound 0.8 µM

| Cell Line | relative viability |
| --- | --- |
| NCI-H1975 | 0.346 |
| NCI-H441 | 0.922 |
| NCI-H1650 | 0.37 |
| NCI-H1915 | 0.337 |
| NCI-H2087 | 0.902 |
| HCC-366 | 0.56 |
| RERF-LC-KJ | 0.779 |
| EMC-BAC-2 | 0.38 |
| LCLC-97TM1 | 0.762 |
| NCI-H1651 | 0.422 |
| NCI-H2009 | 0.284 |
| SW 1573 | 0.505 |

same assay, conditions: first compound 2.53 µM

| Cell Line | relative viability |
| --- | --- |
| NCI-H1975 | 0.321 |
| NCI-H441 | 0.497 |
| NCI-H1650 | 0.265 |
| NCI-H1915 | 0.301 |
| NCI-H2087 | 0.801 |
| HCC-366 | 0.588 |
| RERF-LC-KJ | 0.837 |
| EMC-BAC-2 | 0.372 |
| LCLC-97TM1 | 0.785 |
| NCI-H1651 | 0.35 |
| NCI-H2009 | 0.241 |
| SW 1573 | 0.357 |

same assay, conditions: first compound 8 µM

| Cell Line | relative viability |
| --- | --- |
| NCI-H1975 | 0.198 |
| NCI-H441 | 0.536 |
| NCI-H1650 | 0.225 |
| NCI-H1915 | 0.318 |
| NCI-H2087 | 0.702 |
| HCC-366 | 0.572 |
| RERF-LC-KJ | 0.504 |
| EMC-BAC-2 | 0.354 |
| LCLC-97TM1 | 0.812 |
| NCI-H1651 | 0.251 |
| NCI-H2009 | 0.184 |
| SW 1573 | 0.117 |

compound: CCOC(=O)CCNc1cc(N2CCc3ccccc3CC2)nc(-c2ccccn2)n1 [GSK-J4] + Nc1nc2[nH]cc(CCc3ccc(C(=O)N[C@@H](CCC(=O)O)C(=O)O)cc3)c2c(=O)[nH]1 [Pemetrexed] (partner 0.2 µM); assay: as above; conditions: first compound 0.5 µM
How it was run: as §1

| Cell Line | relative viability |
| --- | --- |
| NCI-H1975 | 0.249 |
| NCI-H441 | 0.26 |
| NCI-H1650 | 0.439 |
| NCI-H1915 | 0.41 |
| NCI-H2087 | 0.622 |
| HCC-366 | 0.148 |
| RERF-LC-KJ | 0.472 |
| EMC-BAC-2 | 0.414 |
| LCLC-97TM1 | 0.15 |
| NCI-H1651 | 0.587 |
| NCI-H2009 | 0.964 |
| SW 1573 | 0.81 |

same assay, conditions: first compound 1.581 µM

| Cell Line | relative viability |
| --- | --- |
| NCI-H1975 | 0.285 |
| NCI-H441 | 0.226 |
| NCI-H1650 | 0.303 |
| NCI-H1915 | 0.518 |
| NCI-H2087 | 0.667 |
| HCC-366 | 0.145 |
| RERF-LC-KJ | 0.47 |
| EMC-BAC-2 | 0.362 |
| LCLC-97TM1 | 0.153 |
| NCI-H1651 | 0.597 |
| NCI-H2009 | 0.846 |
| SW 1573 | 0.804 |

same assay, conditions: first compound 5 µM

| Cell Line | relative viability |
| --- | --- |
| NCI-H1975 | 0.212 |
| NCI-H441 | 0.303 |
| NCI-H1650 | 0.392 |
| NCI-H2087 | 0.635 |
| RERF-LC-KJ | 0.448 |
| LCLC-97TM1 | 0.198 |
| NCI-H1651 | 0.595 |
| NCI-H2009 | 0.769 |
| SW 1573 | 0.768 |

same assay, conditions: first compound 15.81 µM

| Cell Line | relative viability |
| --- | --- |
| NCI-H1975 | 0.331 |
| NCI-H441 | 0.249 |
| NCI-H1650 | 0.36 |
| NCI-H1915 | 0.473 |
| NCI-H2087 | 0.621 |
| HCC-366 | 0.229 |
| RERF-LC-KJ | 0.44 |
| EMC-BAC-2 | 0.441 |
| LCLC-97TM1 | 0.148 |
| NCI-H1651 | 0.518 |
| NCI-H2009 | 0.997 |
| SW 1573 | 0.756 |

same assay, conditions: first compound 50 µM

| Cell Line | relative viability |
| --- | --- |
| NCI-H1975 | 0.276 |
| NCI-H441 | 0.284 |
| NCI-H1650 | 0.331 |
| NCI-H1915 | 0.446 |
| NCI-H2087 | 0.742 |
| HCC-366 | 0.169 |
| RERF-LC-KJ | 0.442 |
| EMC-BAC-2 | 0.477 |
| LCLC-97TM1 | 0.181 |
| NCI-H1651 | 0.56 |
| NCI-H2009 | 0.576 |
| SW 1573 | 0.375 |

compound: CN1CCC(CC1)OC2=CC(=C(C=C2)NC3=NC=C4C(=N3)N(C(=O)N4C)C5CCCC5)OC [AZ3146] + O=C(CCCCCCC(=O)Nc1ccccc1)NO [Vorinostat] (partner 1 µM); assay: as above; conditions: first compound 0.08 µM
How it was run: as §1

| Cell Line | relative viability |
| --- | --- |
| NCI-H1975 | 0.67 |
| NCI-H441 | 0.674 |
| NCI-H1650 | 0.578 |
| NCI-H1915 | 0.371 |
| NCI-H2087 | 0.649 |
| HCC-366 | 0.192 |
| RERF-LC-KJ | 0.534 |
| LCLC-97TM1 | 0.356 |
| NCI-H1651 | 0.428 |
| NCI-H2009 | 0.635 |
| SW 1573 | 0.636 |

same assay, conditions: first compound 0.253 µM

| Cell Line | relative viability |
| --- | --- |
| NCI-H1975 | 0.736 |
| NCI-H441 | 0.803 |
| NCI-H1650 | 0.392 |
| NCI-H1915 | 0.513 |
| NCI-H2087 | 0.505 |
| HCC-366 | 0.408 |
| RERF-LC-KJ | 0.657 |
| LCLC-97TM1 | 0.761 |
| NCI-H1651 | 0.519 |
| NCI-H2009 | 0.673 |
| SW 1573 | 0.767 |

same assay, conditions: first compound 0.8 µM

| Cell Line | relative viability |
| --- | --- |
| NCI-H1975 | 0.735 |
| NCI-H441 | 0.557 |
| NCI-H1650 | 0.563 |
| NCI-H1915 | 0.535 |
| NCI-H2087 | 0.838 |
| HCC-366 | 0.352 |
| RERF-LC-KJ | 0.774 |
| EMC-BAC-2 | 0.519 |
| LCLC-97TM1 | 0.631 |
| NCI-H1651 | 0.477 |
| NCI-H2009 | 0.743 |
| SW 1573 | 0.643 |

same assay, conditions: first compound 2.53 µM

| Cell Line | relative viability |
| --- | --- |
| NCI-H1975 | 0.697 |
| NCI-H441 | 0.821 |
| NCI-H1650 | 0.554 |
| NCI-H1915 | 0.559 |
| NCI-H2087 | 0.668 |
| HCC-366 | 0.278 |
| RERF-LC-KJ | 0.756 |
| EMC-BAC-2 | 0.534 |
| LCLC-97TM1 | 0.635 |
| NCI-H1651 | 0.512 |
| NCI-H2009 | 0.704 |
| SW 1573 | 0.723 |

same assay, conditions: first compound 8 µM

| Cell Line | relative viability |
| --- | --- |
| NCI-H1975 | 0.327 |
| NCI-H441 | 0.647 |
| NCI-H1650 | 0.475 |
| NCI-H1915 | 0.498 |
| NCI-H2087 | 0.367 |
| HCC-366 | 0.14 |
| RERF-LC-KJ | 0.576 |
| EMC-BAC-2 | 0.368 |
| LCLC-97TM1 | 0.653 |
| NCI-H1651 | 0.568 |
| NCI-H2009 | 0.543 |
| SW 1573 | 0.307 |
